Patent publication US20180153842A1, “AMINO ACID SUPPLEMENTATION FOR A HEALTHY MICROBIOTA ECOSYSTEM” (NESTEC S.A., priority 2003, published 2018)

Experiments:
Type in all cases: in vivo, Sprague-Dawley rats
Details in all cases: 5% DSS in drinking water for 9 days then 2% for 18 days, feces
Enterobacteria = assay: fecal Enterobacteria count in rats
Method: (§1) The animal experiment was conducted as follows: Male Sprague-Dawley rats (n=32) aged 10 months were randomly distributed into 4 experimental groups (described below). During an 8 days acclimatization period, rats had free access to tap water and received a control diet or diets supplemented in amino acids as described below. After this adaptation period, Dextran Sulfate Sodium (DSS)-treated rats received 5% DSS (w/v) in their drinking water for the first 9 days of the experiment and 2% DSS for the following 18 days to induce a chronic colitis.
(§2) ii) Group “DSS”: rats were fed ad libitum with the control diet. They received DSS (free access) dissolved in their drinking water as previously described.
(§3) At the end of the experiment, fecal samples were collected from animals with a sterile spoon into sterile tubes, frozen (liquid nitrogen) in 10% glycerol and then stored at −80° C. until analysis. The fecal microbiota was analyzed quantitatively for Enterobacteria, Bacteroides, Enterococci, Lactobacilli and Bifidobacteria species according to standard methods. Bacteria were counted using selective or semi-selective media. The counts were expressed as log (base 10) cfu/g feces with a lower detection limit of 3.30 log cfu/g and 5.50 log cfu/g of feces for Bacteroides.
(§4) Data are expressed as mean±SEM. […]

Bacteroides = assay: fecal Bacteroides count in rats
Method: as §1, §2, §3, §4

Lactobacilli = assay: fecal Lactobacilli count in rats
Method: as §1, §2, §3, §4

Enterococci = assay: fecal Enterococci count in rats
Method: as §1, §2, §3, §4

Enterobacteria counts compared to controls (Enterobacteria): significantly decreased
Bacteroides counts compared to controls (Bacteroides): increased
Lactobacilli counts compared to controls (Lactobacilli): significantly decreased
Enterococci counts compared to controls (Enterococci): significantly decreased
Substance: Dextran Sulfate Sodium [DSS]
